Like-named read-outs stand apart in the source and are kept apart here.
Columns and labels:
MDA-MB-231 = assay: In vitro cell proliferation assay (MTT), MDA-MB-231; type: cell-based; conditions: Homo sapiens, 72 hours
Method: (§1) Assay 4: In Vitro Cell Proliferation Assay in Cancer Cell Lines
(§2) Growth inhibition assays were carried out using 10% FBS supplemented media. Cells were seeded at a concentration of 5000-20,000 cells/well in a 96-well plate. Test compounds at a concentration range from 0.01 to 10000 nM were added after 24 hours. Growth was assessed using the 3-[4,5-dimethylthiazol-2-yl]-2,5-diphenyltetrazolium bromide (MTT) dye reduction test at 0 h (prior to the addition of the test compound) and 72 hours after the addition of test compound. Absorbance was read on a Fluostar Optima (BMG Labtech, Germany) at a wave length of 450 nm. Data were analysed using GraphPad Prism and percent inhibition due to the test compound compared to the control was calculated accordingly.

Glutaminase(Brain) = molecular target: T1, Glutaminase(Brain) (Mus musculus, UniProt D3Z7P3); assay: Glutaminase enzyme activity using glutaminase enzyme from mice brain/kidney homogenate (Nessler's reagent, ammonia); type: biochemical; conditions: for inhibition at 0.1 µM: read-out: Glutaminase(Brain) activity % inhibition 0.1 μM; for inhibition at 1 µM: read-out: Glutaminase(Brain) activity % inhibition @1 μM
T1 sequence (D3Z7P3 55-674): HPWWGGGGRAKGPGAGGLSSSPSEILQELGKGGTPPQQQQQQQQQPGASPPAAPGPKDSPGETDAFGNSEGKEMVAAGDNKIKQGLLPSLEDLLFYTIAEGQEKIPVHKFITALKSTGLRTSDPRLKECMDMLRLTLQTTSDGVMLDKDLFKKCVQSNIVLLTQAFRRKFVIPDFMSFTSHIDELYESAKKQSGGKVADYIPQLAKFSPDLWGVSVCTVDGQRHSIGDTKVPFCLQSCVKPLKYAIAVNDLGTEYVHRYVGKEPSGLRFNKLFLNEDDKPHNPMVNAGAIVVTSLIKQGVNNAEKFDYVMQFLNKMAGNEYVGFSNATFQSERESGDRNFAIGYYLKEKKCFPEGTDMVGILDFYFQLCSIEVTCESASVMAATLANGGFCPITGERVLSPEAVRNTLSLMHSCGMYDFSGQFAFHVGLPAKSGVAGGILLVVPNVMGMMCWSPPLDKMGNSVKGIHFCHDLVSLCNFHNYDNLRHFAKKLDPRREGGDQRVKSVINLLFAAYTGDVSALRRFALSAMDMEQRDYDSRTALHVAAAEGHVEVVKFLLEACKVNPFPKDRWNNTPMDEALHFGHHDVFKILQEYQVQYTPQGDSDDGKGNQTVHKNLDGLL
Method: Assay 3: Determination of Glutaminase Enzyme Activity Using Glutaminase Enzyme from Mice Brain/Kidney
Step 1: Preparation of Tissue Homogenates:
Male Balb/c mice were administered 0.28 M ammonium chloride in drinking water for 7 days. The animals were sacrificed and brain/kidney organs collected on dry ice. […] The tissue was homogenized and supernatants were stored at −80° C. until the enzyme assay was performed.
Aim: Compounds were assessed for their ability to inhibit the enzymatic activity of L-glutaminase present in mice brain/kidney homogenate.
Protocol: The assay was performed using a colorimetric method using Nessler's Reagent by quantifying the amount of ammonia formed as a by product during the enzymatic conversion of L-glutamine to glutamate. In the routine assay, 16 μl of tissue homogenate is added to 33 μl of Tris-Hcl phosphate buffer (pH 8) along with 1 μl of DMSO/test compound containing the desired final concentration and vortexed briefly. 50 μl of 20 mM L-glutamine Tris buffer is added to start the reaction and incubated for 15 minutes at 37° C. The ammonia formed is detected by adding 20 μl of reaction mixture to cold water in a 96 well plate followed by 20 μl of Nessler's reagent. The colour developed is measured at 450 nm. Data Analysis: Activity of the test compound is reported as % inhibition and the data is analyzed using Graphpad Prism (Graphpad software; San Diego Calif.) for IC50 determination.

Rajii = assay: In vitro cell proliferation assay (MTT), Rajii; type: cell-based; conditions: 72 hours
Method: as §1, §2

Daudi = assay: In vitro cell proliferation assay (MTT), Daudi; type: cell-based; conditions: Homo sapiens, 72 hours
Method: as §1, §2

A549 = assay: In vitro cell proliferation assay (MTT), A549; type: cell-based; conditions: Homo sapiens, 72 hours
Method: as §1, §2

HCT116 = assay: In vitro cell proliferation assay (MTT), HCT116; type: cell-based; conditions: Homo sapiens, HCT-116, 72 hours
Method: as §1, §2

| SMILES | GI50 (MDA-MB-231) | inhibition at 0.1 µM (Glutaminase(Brain); 0.1 μM, mice brain homogenate) | inhibition at 1 µM (Glutaminase(Brain); 1 μM, mice brain homogenate) | further results |
| --- | --- | --- | --- | --- |
| O=C(Cc1cccc(OC(F)(F)F)c1)Nc1ccc(N2CCCC(c3nnc(NC(=O)Cc4cccnc4)s3)C2)cn1 (racemic) [Example 3, (RS)-2-(Pyridin-3-yl)-N-(5-(1-(6-(2-(3-(trifluoromethoxy)phenyl)acetamido)pyridin-3-yl)piperidin-3-yl)-1,3,4-thiadiazol-2-yl)acetamide] | 1000 to 3000 nM | 25 to 50% | 50 to 75% |  |
| O=C(Cc1cccc(OC(F)(F)F)c1)Nc1ccc(N2CCC(c3nnc(NC(=O)Cc4cccnc4)s3)CC2)cn1 [Example-4, 2-(Pyridin-3-yl)-N-(5-(1-(6-(2-(3-(trifluoromethoxy)phenyl)acetamido)pyridin-3-yl)piperidin-4-yl)-1,3,4-thiadiazol-2-yl)acetamide] | 250 to 500 nM | 25 to 50% | 50 to 75% |  |
| O=C(Cc1ccccn1)Nc1ccc(N2CCCC(c3nnc(NC(=O)Cc4cccc(OC(F)(F)F)c4)s3)C2)cn1 (stereo not drawn) [Example-7, 2-(Pyridin-2-yl)-N-(5-(3-(5-(2-(3-(trifluoromethoxy)phenyl)acetamido)-1,3,4-thiadiazol-2-yl)piperidin-1-yl)pyridin-2-yl)acetamide] |  | < 25% | < 25% | melting point: 151 to 153 °C |
| O=C(Cc1cccc(OC(F)(F)F)c1)Nc1ccc(N2CCC(c3nnc(NC(=O)Cc4ccccn4)s3)CC2)nn1 [Example-8, 2-(pyridin-2-yl)-N-(5-(1-(6-(2-(3-(trifluoromethoxy)phenyl)acetamido)pyridazin-3-yl)piperidin-4-yl)-1,3,4-thiadiazol-2-yl)acetamide] |  |  |  | GI50 (Rajii): < 100 nM; inhibition at 0.1 µM (Glutaminase(Brain)): 75 to 100%; inhibition at 1 µM (Glutaminase(Brain)): 75 to 100%; GI50 (Daudi): < 100 nM; GI50 (A549): 100 to 250 nM; GI50 (HCT116): 250 to 500 nM |
| O=C(Cc1cccc(OC(F)(F)F)c1)Nc1ccc(N2CCCC(c3nnc(NC(=O)Cc4ccccn4)s3)C2)nn1 (stereo not drawn) [Example-9, 2-(Pyridin-2-yl)-N-(5-(1-(6-(2-(3-(trifluoromethoxy)phenyl)acetamido)pyridazin-3-yl)piperidin-3-yl)-1,3,4-thiadiazol-2-yl)acetamide] | 100 to 250 nM |  |  | inhibition at 0.1 µM (Glutaminase(Brain)): 50 to 75%; inhibition at 1 µM (Glutaminase(Brain)): 75 to 100% |
| O=C(Cc1cccc(OC(F)(F)F)c1)Nc1ccc(N2CCC(c3nnc(NC(=O)Cc4cccnc4)s3)CC2)nn1 [Example-10, 2-(Pyridin-3-yl)-N-(5-(1-(6-(2-(3-(trifluoromethoxy)phenyl)acetamido)pyridazin-3-yl)piperidin-4-yl)-1,3,4-thiadiazol-2-yl)acetamide] | 100 to 250 nM | 50 to 75% | 75 to 100% |  |
| CS(=O)(=O)Nc1cccc(CC(=O)Nc2nnc(C3CCN(c4ccc(NC(=O)Cc5cccc(OC(F)(F)F)c5)nn4)CC3)s2)c1 [Example-11, 2-(3-(Methylsulfonamido)phenyl)-N-(5-(1-(6-(2-(3-(trifluoromethoxy)phenyl)acetamido)pyridazin-3-yl)piperidin-4-yl)-1,3,4-thiadiazol-2-yl)acetamide] | 250 to 500 nM | < 25% | 50 to 75% |  |
| O=C(Cc1ccccc1Cl)Nc1ccc(N2CCC(c3nnc(NC(=O)Cc4ccccn4)s3)CC2)nn1 [Example-12, 2-(2-Chlorophenyl)-N-(6-(4-(5-(2-(pyridin-2-yl)acetamido)-1,3,4-thiadiazol-2-yl)piperidin-1-yl)pyridazin-3-yl)acetamide] | < 100 nM | 50 to 75% | 75 to 100% |  |
| O=C(Cc1ccccc1F)Nc1ccc(N2CCC(c3nnc(NC(=O)Cc4ccccn4)s3)CC2)nn1 [Example-14, 2-(2-Fluorophenyl)-N-(6-(4-(5-(2-(pyridin-2-yl)acetamido)-1,3,4-thiadiazol-2-yl)piperidin-1-yl)pyridazin-3-yl)acetamide] | < 100 nM | 75 to 100% | 75 to 100% |  |
| O=C(Cc1cccc(OC(F)(F)F)c1)Nc1ccc(N2CCC(c3nnc(NC(=O)Cc4cnccn4)s3)CC2)nn1 [Example-15, 2-(Pyrazin-2-yl)-N-(5-(1-(6-(2-(3-(trifluoromethoxy)phenyl)acetamido)pyridazin-3-yl)piperidin-4-yl)-1,3,4-thiadiazol-2-yl)acetamide] | < 100 nM | 50 to 75% | 75 to 100% |  |
| O=C(Cc1ccccn1)Nc1ccc(N2CCC(c3nnc(NC(=O)Cc4cccc(OC(F)(F)F)c4)s3)CC2)nn1 [Example-17, 2-(Pyridin-2-yl)-N-(6-(4-(5-(2-(3-(trifluoromethoxy)phenyl)acetamido)-1,3,4-thiadiazol-2-yl)piperidin-1-yl)pyridazin-3-yl)acetamide] | < 100 nM |  |  | inhibition at 0.1 µM (Glutaminase(Brain)): 75 to 100%; inhibition at 1 µM (Glutaminase(Brain)): 75 to 100% |
| O=C(Cc1cccnc1)Nc1ccc(N2CCC(c3nnc(NC(=O)Cc4cccc(OC(F)(F)F)c4)s3)CC2)nn1 [Example-18, 2-(Pyridin-3-yl)-N-(6-(4-(5-(2-(3-(trifluoromethoxy)phenyl)acetamido)-1,3,4-thiadiazol-2-yl)piperidin-1-yl)pyridazin-3-yl)acetamide] | < 100 nM | 75 to 100% | 75 to 100% |  |
| Cc1ccccc1CC(=O)Nc1nnc(C2CCN(c3ccc(NC(=O)Cc4cccc(OC(F)(F)F)c4)nn3)CC2)s1 [Example-31, 2-o-Tolyl-N-(5-(1-(6-(2-(3-(trifluoromethoxy)phenyl)acetamido)pyridazin-3-yl)piperidin-4-yl)-1,3,4-thiadiazol-2-yl)acetamide] |  | 25 to 50% | 50 to 75% |  |
| O=C(Cc1cccc(OC(F)(F)F)c1)Nc1ccc(N2CCC(c3nnc(NC(=O)Cc4c[nH]c5ccccc45)s3)CC2)nn1 [Example-32, N-(6-(4-(5-(2-(1H-indol-3-yl)acetamido)-1,3,4-thiadiazol-2-yl)piperidin-1-yl)pyridazin-3-yl)-2-(3-(trifluoromethoxy)phenyl)acetamide] |  | 25 to 50% | 50 to 75% |  |
| O=C(Cc1ccccc1F)Nc1ccc(N2CCC(c3nnc(NC(=O)Cc4cnccn4)s3)CC2)nn1 [Example-33, 2-(2-Fluorophenyl)-N-(6-(4-(5-(2-(pyrazin-2-yl)acetamido)-1,3,4-thiadiazol-2-yl)piperidin-1-yl)pyridazin-3-yl)acetamide] |  | 25 to 50% | 50 to 75% |  |
| O=C(Cc1cccc(OC(F)(F)F)c1)Nc1ccc(N2CCC(c3nnc(NC(=O)Cc4cccc(N5CCC5)c4)s3)CC2)nn1 [Example-34, 2-(3-(Azetidin-1-yl)phenyl)-N-(5-(1-(6-(2-(3-(trifluoromethoxy)phenyl)acetamido)pyridazin-3-yl)piperidin-4-yl)-1,3,4-thiadiazol-2-yl)acetamide] |  | 25 to 50% | 50 to 75% |  |
| O=C(Cc1ccccn1)Nc1ccc(N2CCC(c3nnc(NC(=O)Cc4cccc(Cl)c4)s3)CC2)nn1 [Example-35, 2-(3-Chlorophenyl)-N-(5-(1-(6-(2-(pyridin-2-yl)acetamido)pyridazin-3-yl)piperidin-4-yl)-1,3,4-thiadiazol-2-yl)acetamide] |  | 50 to 75% | 75 to 100% |  |
| O=C(Cc1cccc(OC(F)(F)F)c1)Nc1ccc(N2CCC(c3nnc(NC(=O)C(CO)c4ccccc4)s3)CC2)nn1 (stereo not drawn) [Example-36, 3-Hydroxy-2-phenyl-N-(5-(1-(6-(2-(3-(trifluoromethoxy)phenyl)acetamido)pyridazin-3-yl)piperidin-4-yl)-1,3,4-thiadiazol-2-yl)propanamide] |  | 25 to 50% | 50 to 75% |  |

— patent US10611759B2, “Glutaminase inhibitors” (Rhizen Pharmaceuticals SA, priority 2014, dated 2020)
